{"source": "patent US20110311601A1", "about": "“ANTIMICROBIAL MEDICAL DEVICES” (priority 2010, published 2011)", "key": {"[1]": {"system": "Stahylococcus aureus ATCC 12600", "test": "micro-dilution assay (MBC, LD90)", "assay_type": "cell-based, Staphylococcus aureus", "method": "The anti-bacterial activity of hβD2 was tested by a micro-dilution assay. Bacteria and fungi were streaked from a glycerol stock onto a Brain Heart Infusion (BHI) agar plate (3.7% w/v BHI Bouillon, 1.5% w/v Agar), grown overnight at 37° C. and 30° C., respectively and subsequently used to inoculate 40 ml of 3.7% w/v BHI Bouillon without any antibiotics in 100 ml flasks. Fresh cells were harvested by centrifugation at 16000 rpm for 10 min and washed twice with 10 mM sodium phosphate buffer, pH 7.2. The optical density was adjusted to 10^4 cells/ml. For anti-bacterial testing hβD2 was incubated in one well of a microtiter plate containing 100 μl of the bacterial suspension. Therefore, ten microlitres of hβD2 solution with a range of final concentrations tested from 0.0125 up to and including 100 mg/l was added to the bacterial suspension and incubated at 37° C. and 30° C., respectively for 2 h before colony forming units were determined. Colony forming units (CFU) were determined after plating 100 μl of a 1:100 dilution of the bacterial suspension on petri dishes with BHI medium and incubating them overnight at 37° C. For every group of the hβD2 added samples and the controls, 5 independent anti-bacterial assays were performed. A control (NC) of bacterial growth was examined for every independent assay. […]"}, "[2]": {"system": "Escherichia coli strain DB3.1", "test": "agar diffusion assay (zone of inhibition)", "assay_type": "cell-based", "method": "Agar diffusion assay. In the agar diffusion assay the microorganisms were exposed immovable to the potential bio-active substance by inclusion in an agar containing medium. The use of a nutrient limited minimal medium led first to a limitation of the development of the bacteria. The test substances were dependent on the application form pipetted into the punched recess in the agar or placed with a test sample into the punched recess in the agar and spread out during incubation time by diffusion into the agar. After incubation the nutrient limitation of the bacteria was revoked. The determination of the bioactivity was performed by measuring the diameter of the raised zone of inhibition surrounding the recess.\nTherefore, Escherichia coli strain DB3.1 (Invitrogen, Cat. No. 11782-018) was used. E. coli was streaked from a glycerol stock onto a Brain Heart Infusion (BHI) agar plate (3.7% (w/v) BHI Bouillon, 1.5% (w/v) Agar) and was grown overnight at 37° C. Subsequently one colony was used to inoculate 8 ml of TSB medium (Caso Bouillon 3% (w/v)) without any antibiotics in a culture tube which was then incubated shaking (120 rpm) over night at 37° C. 50 μl of this pre-culture was used to inoculate again 8 ml of TSB medium (Caso Bouillon 3% (w/v)) without any antibiotics in a fresh culture tube which was then incubated shaking (125 rpm) for 3.5 h at 37° C. The OD600 of the bacterial suspension was then 0.500.\nThe underlay medium (11% (v/v) 0.1 M sodium phosphate buffer pH 7.2, 1% (v/v) TSB-medium, 0.02% (v/v) Tween, 1% (w/v) agarose in distilled water, pH 7.2), a minimal medium, was liquefied using micro waves and cooled to about 47° C. 10 ml underlay medium with 500 μl bacterial suspension were mixed in a 50 ml falcon tube by slight swirling and then was poured into a petri dish. The cooling time was first 15 min at room temperature and then 30 min at 4° C. Afterwards the recesses for test liquids (diameter 3 mm) and test materials (diameter 6 mm), respectively, were punched out from the underlay medium by using a punching-dye. 5 μl test liquid was pipetted per recess and the test materials were laid into the recess or were slid under the underlay medium, respectively. The lid of the plate was closed by parafilm and the plate was incubated over night at 37° C. The next day, the overlay medium (3.4% (w/v) casein peptone, 0.6% (w/v) soy flour peptone, 0.5% (w/v) di-potassium hydrogen phosphate, 1% (w/v) NaCl, 0.5% (w/v) glucose, 1% (w/v) agarose in distilled water) was liquefied using micro waves and cooled to about 47° C. In every Petri dish 10 ml overlay medium were poured on the underlay medium. After cooling for 5 minutes the plate was closed by the lid and incubated at 37° C. for about 2-3 h. For evaluation, the diameter of the raised zones of inhibition surrounding the recesses was measured.\nThe potential of the chosen biopolymers to release bio-active hβD2 after coating/mixing them with hβD2, was determined by a screening in the diffusion assay (as described in Example 5). The assay allows a correlation between the released amounts of bio-active molecules and the resulting zone of inhibition surrounding the releasing source. A comparison with the effect of directly applied, defined amounts of hβD2 allows an evaluation of the release potential of the test materials.\nIn the assay films made of 1% hyaluronic acid and 1% alginic acid, gelatin leaves, gelatinized agarose drops of 1% agarose solution and films of the dried drops were used. Additionally three variants of a polylactide matrix (uncoated, coated with collagen, coated with collagen and chondroitin sulphate) and collagen scaffolds were tested.\nThe samples were prepared as described in example 5 and treated with 10 μg hβD2. For the comparison between the effect of directly applied hβD2 amounts and the effect of hβD2-coated samples a standard series for 0.1, 1, 5 and 10 μg hβD2 was performed. The control was formed by the 0.01% acetic acid. […]"}}, "note": "Where no end group is shown, it is not given here."}
{"substance": "human β-defensin-2 (GIGDPVTCLKSGAICHPVFCPRRYKQIGTCGLPGTKCCKKP; ends and bridges not checked; cysteine pairing not given here) [hβD2, recombinant hβD2]", "values": [{"measurement": "LD 90 = μg/ml 90% killing", "setting": "[1]", "result": 25, "unit": "µg/mL"}, {"measurement": "MBC = μg/ml 99.9% killing", "setting": "[1]", "result": 100, "unit": "µg/mL"}, {"measurement": "diameter of zone of inhibition", "setting": "[2]; 0.1 μg hβD2 directly applied", "result": 6, "unit": "mm"}, {"measurement": "diameter of zone of inhibition", "setting": "[2]; 1 μg hβD2 directly applied", "result": 9, "unit": "mm"}, {"measurement": "diameter of zone of inhibition", "setting": "[2]; 5 μg hβD2 directly applied", "result": 12, "unit": "mm"}, {"measurement": "diameter of zone of inhibition", "setting": "[2]; 10 μg hβD2 directly applied", "result": 15, "unit": "mm"}, {"measurement": "formation of a zone of inhibition", "setting": "[2]; 10 μg hβD2 on alginic acid film", "result": "did not exhibit the formation of a zone of inhibition"}, {"measurement": "formation of a zone of inhibition", "setting": "[2]; 10 μg hβD2 on hyaluronic acid film", "result": "did not exhibit the formation of a zone of inhibition"}]}
